Source: PubChem BioAssay AID330 (DTP/NCI, 2004)
Where “and” joins values, the source holds several entries; their conditions need not be identical. Equal entries are not always repeated. Inconclusive results and toxic doses are left out.

Tested on: P388 leukemia ip, CD2F1 mice, survival T/C
Experiment: NCI In Vivo Anticancer Drug Screen. Data for tumor model P388 Leukemia (intraperitoneal) in CD2F1 (CDF1) mice
Conditions: endpoint: median survival time, higher = longer survival
Outline: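 Mice carrying the transplanted tumor received test compound or vehicle. Survival was recorded in each group, and the value is the treated-group measurement divided by that of the vehicle-treated control group.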

[1] = dose: 60.0 mg/kg/injection, schedule: Q01DX005 (ip), vehicle: Klucel (hydroxypropylcellulose) (HPC)
[2] = dose: 120.0 mg/kg/injection, schedule: Q01DX005 (ip), vehicle: Klucel (hydroxypropylcellulose) (HPC)
[3] = dose: 240.0 mg/kg/injection, schedule: Q01DX005 (ip), vehicle: Klucel (hydroxypropylcellulose) (HPC)
[4] = dose: 100.0 mg/kg/injection, schedule: Q04DX003 (ip), vehicle: saline with Tween-80
[5] = dose: 50.0 mg/kg/injection, schedule: Q01DX005 (ip), vehicle: Klucel (hydroxypropylcellulose) (HPC)
[6] = dose: 100.0 mg/kg/injection, schedule: Q01DX005 (ip), vehicle: Klucel (hydroxypropylcellulose) (HPC)
[7] = dose: 200.0 mg/kg/injection, schedule: Q01DX005 (ip), vehicle: Klucel (hydroxypropylcellulose) (HPC)
[8] = dose: 50.0 mg/kg/injection, schedule: Q01DX009 (ip), vehicle: saline

Compound: COc1ccc(C(c2cc(C(C)(C)C)cc(C(C)(C)C)c2O)N2CCOCC2)cc1 (configuration not stated)
- T/C (dose: 50.0 mg/kg/injection, schedule: Q01DX005 (ip), vehicle: distilled water + alcohol): 99 % of control
- T/C (dose: 100.0 mg/kg/injection, schedule: Q01DX005 (ip), vehicle: distilled water + alcohol): 103 % of control
- T/C (dose: 200.0 mg/kg/injection, schedule: Q01DX005 (ip), vehicle: distilled water + alcohol): 99 % of control

Compound: CCc1ccccc1NC(=O)NCC(C)C
- T/C (dose: 50.0 mg/kg/injection, schedule: Q01DX009 (ip), vehicle: Klucel (hydroxypropylcellulose) (HPC)): 105 % of control
- T/C (dose: 100.0 mg/kg/injection, schedule: Q01DX009 (ip), vehicle: Klucel (hydroxypropylcellulose) (HPC)): 97 % of control
- T/C (dose: 200.0 mg/kg/injection, schedule: Q01DX009 (ip), vehicle: Klucel (hydroxypropylcellulose) (HPC)): 105 % of control

Compound: Nc1nc(-c2cc(-c3ccco3)nc(N)n2)cc(-c2ccco2)n1
- T/C (dose: 60.0 mg/kg/injection, schedule: Q01DX005 (ip), vehicle: saline): 103 % of control
- T/C (dose: 120.0 mg/kg/injection, schedule: Q01DX005 (ip), vehicle: saline): 103 % of control
- T/C (dose: 240.0 mg/kg/injection, schedule: Q01DX005 (ip), vehicle: saline): 101 % of control

Compound: COC1OC2COc3ccccc3OC2C(NC#N)C1OC (configuration not stated)
- T/C [1]: 112 % of control
- T/C [2]: 108 % of control
- T/C [3]: 107 % of control

Compound: N#CCc1ccc(C(C#N)C(=O)CCC(=O)C(C#N)c2ccc(CC#N)cc2)cc1 (configuration not stated)
- T/C (dose: 50.0 mg/kg/injection, schedule: Q01DX005 (ip), vehicle: saline with Tween-80): 100 % of control
- T/C (dose: 100.0 mg/kg/injection, schedule: Q01DX005 (ip), vehicle: saline with Tween-80): 100 % of control

Compound: CCOC(=O)c1sc(SSc2sc(C(=O)OCC)c(C)c2[N+](=O)[O-])c([N+](=O)[O-])c1C
- T/C (dose: 1.56 mg/kg/injection, schedule: Q01DX009 (ip), vehicle: saline with Tween-80): 94 % of control
- T/C (dose: 3.12 mg/kg/injection, schedule: Q01DX009 (ip), vehicle: saline with Tween-80): 101 % of control
- T/C (dose: 6.25 mg/kg/injection, schedule: Q01DX009 (ip), vehicle: saline with Tween-80): 93 % of control
- T/C (dose: 12.5 mg/kg/injection, schedule: Q01DX009 (ip), vehicle: saline with Tween-80): 88 % of control
- T/C (dose: 25.0 mg/kg/injection, schedule: Q04DX003 (ip), vehicle: saline with Tween-80): 102 % of control
- T/C (dose: 50.0 mg/kg/injection, schedule: Q04DX003 (ip), vehicle: saline with Tween-80): 93 % of control
- T/C [4]: 86 % of control and 97 % of control

Compound: COc1ccc(C2C(C#N)=C(c3ccccc3)OC(OC)(OC)C2(OC)OC)cc1 (configuration not stated)
- T/C [1]: 102 % of control
- T/C [2]: 102 % of control
- T/C [3]: 99 % of control

Compound: CC(=O)OC1CC2C(C)(C)C(=O)C=CC2(C)C2CCC3(C)C(c4ccoc4)OC(=O)C4OC43C12C (configuration not stated)
- T/C (dose: 100.0 mg/kg/injection, schedule: Q01DX009 (ip), vehicle: saline with Tween-80): 90 % of control
- T/C [4]: 109 % of control
- T/C (dose: 200.0 mg/kg/injection, schedule: Q01DX009 (ip), vehicle: saline with Tween-80): 95 % of control
- T/C (dose: 200.0 mg/kg/injection, schedule: Q04DX003 (ip), vehicle: saline with Tween-80): 100 % of control
- T/C (dose: 400.0 mg/kg/injection, schedule: Q01DX009 (ip), vehicle: saline with Tween-80): 100 % of control
- T/C (dose: 400.0 mg/kg/injection, schedule: Q04DX003 (ip), vehicle: saline with Tween-80): 90 % of control

Compound: CCN(CC)CCCC(C)Nc1c2ccc(Cl)cc2nc2ccc(OC)cc12 (configuration not stated)
- T/C (dose: 3.0 mg/kg/injection, schedule: Q03HX024 (ip), vehicle: saline with Tween-80): 108 % of control
- T/C (dose: 4.0 mg/kg/injection, schedule: Q01DX009 (ip), vehicle: suspension in saline): 104 % of control
- T/C (dose: 4.0 mg/kg/injection, schedule: Q#A X018 (ip), vehicle: saline with Tween-80): 97 % of control
- T/C (dose: 6.0 mg/kg/injection, schedule: Q03HX024 (ip), vehicle: saline with Tween-80): 93 % of control
- T/C (dose: 8.0 mg/kg/injection, schedule: Q01DX009 (ip), vehicle: saline with Tween-80): 104 % of control and 105 % of control
- T/C (dose: 8.0 mg/kg/injection, schedule: Q01DX009 (ip), vehicle: suspension in saline): 110 % of control
- T/C (dose: 8.0 mg/kg/injection, schedule: Q#A X018 (ip), vehicle: saline with Tween-80): 87 % of control
- T/C (dose: 16.0 mg/kg/injection, schedule: Q01DX009 (ip), vehicle: saline with Tween-80): 106 % of control and 120 % of control
- T/C (dose: 16.0 mg/kg/injection, schedule: Q01DX009 (ip), vehicle: suspension in saline): 108 % of control
- T/C (dose: 16.0 mg/kg/injection, schedule: Q#A X018 (ip), vehicle: saline with Tween-80): 91 % of control
- T/C (dose: 20.0 mg/kg/injection, schedule: Q04DX003 (ip), vehicle: saline with Tween-80): 100 % of control
- T/C (dose: 24.0 mg/kg/injection, schedule: Q03HX024 (ip), vehicle: saline with Tween-80): 108 % of control
- T/C (dose: 24.0 mg/kg/injection, schedule: Q04DX003 (ip), vehicle: saline with Tween-80): 97 % of control
- T/C (dose: 32.0 mg/kg/injection, schedule: Q01DX009 (ip), vehicle: saline with Tween-80): 117 % of control
- T/C (dose: 32.0 mg/kg/injection, schedule: Q01DX009 (ip), vehicle: suspension in saline): 113 % of control
- T/C (dose: 32.0 mg/kg/injection, schedule: Q#A X018 (ip), vehicle: saline with Tween-80): 104 % of control
- T/C (dose: 40.0 mg/kg/injection, schedule: Q04DX003 (ip), vehicle: saline with Tween-80): 100 % of control
- T/C (dose: 48.0 mg/kg/injection, schedule: Q04DX003 (ip), vehicle: saline with Tween-80): 97 % of control
- T/C (dose: 64.0 mg/kg/injection, schedule: Q01DX009 (ip), vehicle: suspension in saline): 113 % of control
- T/C (dose: 71.0 mg/kg/injection, schedule: Q01DX001 (ip), vehicle: saline with Tween-80): 106 % of control
- T/C (dose: 80.0 mg/kg/injection, schedule: Q04DX003 (ip), vehicle: saline with Tween-80): 108 % of control
- T/C (dose: 96.0 mg/kg/injection, schedule: Q04DX003 (ip), vehicle: saline with Tween-80): 106 % of control
- T/C (dose: 128.0 mg/kg/injection, schedule: Q01DX009 (ip), vehicle: saline with Tween-80): 98 % of control
- T/C (dose: 128.0 mg/kg/injection, schedule: Q01DX009 (ip), vehicle: suspension in saline): 91 % of control
- T/C (dose: 143.0 mg/kg/injection, schedule: Q01DX001 (ip), vehicle: saline with Tween-80): 113 % of control

Compound: NC(=O)C(=O)c1c(-c2ccccc2)c(-c2ccccc2)c2n1CCC2
- T/C [5]: 100 % of control
- T/C [6]: 99 % of control
- T/C [7]: 93 % of control

Compound: CC1(C)N=C(N)N=C(N)N1c1ccc(F)c(C(F)(F)F)c1
- T/C (dose: 1.0 mg/kg/injection, schedule: Q01DX009 (ip), vehicle: saline): 118 % of control
- T/C (dose: 4.0 mg/kg/injection, schedule: Q08DX002 (ip), vehicle: saline): 119 % of control
- T/C (dose: 8.0 mg/kg/injection, schedule: Q01DX009 (ip), vehicle: saline): 170 % of control
- T/C (dose: 8.0 mg/kg/injection, schedule: Q08DX002 (ip), vehicle: saline): 120 % of control
- T/C (dose: 16.0 mg/kg/injection, schedule: Q01DX009 (ip), vehicle: saline): 181 % of control
- T/C (dose: 32.0 mg/kg/injection, schedule: Q01DX001 (ip), vehicle: saline): 121 % of control
- T/C (dose: 32.0 mg/kg/injection, schedule: Q01DX009 (ip), vehicle: saline): 190 % of control
- T/C (dose: 64.0 mg/kg/injection, schedule: Q01DX001 (ip), vehicle: saline): 121 % of control
- T/C (dose: 64.0 mg/kg/injection, schedule: Q01DX009 (ip), vehicle: saline): 90 % of control
- T/C (dose: 128.0 mg/kg/injection, schedule: Q01DX001 (ip), vehicle: saline): 122 % of control

Compound: C=CCNCCN1CCN(CCCN2c3ccccc3Sc3ccc(C(F)(F)F)cc32)CC1
- T/C (dose: 25.0 mg/kg/injection, schedule: Q04DX003 (ip), vehicle: saline): 91 % of control
- T/C (dose: 50.0 mg/kg/injection, schedule: Q04DX003 (ip), vehicle: saline): 119 % of control and 97 % of control

Compound: CCCCCCCCCCCCc1ccc(C[N+](C)(C)CC[N+](C)(C)Cc2ccc(CCCCCCCCCCCC)cc2)cc1
- T/C [8]: 104 % of control

Compound: COc1ccc(CCN(CCC#N)C(=O)C(Cl)Cl)cc1
- T/C [5]: 97 % of control
- T/C [6]: 97 % of control
- T/C [7]: 99 % of control

Compound: CN(C)CC(O)c1cc2ccccc2c2ccccc12 (configuration not stated)
- T/C (dose: 12.5 mg/kg/injection, schedule: Q01DX009 (ip), vehicle: saline): 106 % of control
- T/C (dose: 25.0 mg/kg/injection, schedule: Q01DX009 (ip), vehicle: saline): 103 % of control
- T/C [8]: 100 % of control
